Assay: gradient 5% acetonitrile 3 min, to 50% in 2 min, to 85% in 15 min, held 3 min, 100 µL/min
Details: column: Zorbax Extend-C18 2.1 x 50 mm; eluents: water / acetonitrile, 0.1% formic acid
Method in brief: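 Mixtures of ~100 pure standards were chromatographed on a Zorbax Extend-C18 column (2.1 × 50 mm, 1.8 μm) at 100 μL/min using water and acetonitrile, each with 0.1% formic acid. Detection used a quadrupole time-of-flight mass spectrometer in positive and negative ionization mode, and data collection spanned 3 months. Retention time was obtained from adduct peaks picked computationally and each checked manually.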

| SMILES | RP-LC retention time [s] |
| --- | --- |
| CCOCCCNC(=O)c1cc2sccc2n1Cc1ccc(Cl)cc1 | 1040 |
| CCS(=O)(=O)c1nc2ccc(NS(=O)(=O)c3ccc(C(C)(C)C)cc3)cc2s1 | 1040 |
| O=C(CN1CCN(S(=O)(=O)c2ccccc2)CC1)Nc1ccc(Br)cc1 | 722 |
| CCN1C(=O)CCc2cc(NC(=O)Cc3c(F)cccc3Cl)ccc21 | 792 |
| O=C1Oc2ccccc2C(=O)/C1=C1/C=C(c2ccccc2)SS1 | 1210 |
| Cc1ccc(-c2csc(NC(=O)c3coc4ccccc4c3=O)n2)o1 | 1070 |
| CN(CC1CCOCC1)C(=O)Nc1cccc(C(F)(F)F)c1 | 816 |
| COc1cccc(COC(=O)C2=CN(C)S(=O)(=O)N=C2C)c1 | 921 |
| O=C(c1ccc(F)cc1Cl)N1CCN(c2cc(-c3ccc(F)cc3)[nH]n2)CC1 | 837 |
| Nc1cc(C(=O)Nc2ccccc2F)ccc1N1CC2CC(C1)c1cccc(=O)n1C2 (stereo not drawn) | 740 |
| O=C(NCc1cccc(Br)c1)C1CCCN(c2cnc3nccnc3c2)C1 (stereo not drawn) | 739 |
| Cn1cccc(C(=O)N2CCC(CNC(=O)c3ccc(Cl)s3)CC2)c1=O | 610 |
| Cc1nc2cc(N3CCCC(C(=O)N4CCCCCC4)C3)cnc2nc1C (stereo not drawn) | 653 |
| CCCC(=O)Nc1ccc(S(=O)(=O)NCCn2ncccc2=O)cc1 | 612 |
| CCN(CCN(C)C)c1ccc(C(=O)O)cc1NS(=O)(=O)c1ccc(Br)cc1 | 648 |
| CCc1ccc(S(=O)(=O)N2CCN(c3cc(C)nc(NC4CCCCC4)n3)CC2)cc1 | 876 |
| COc1cccc(CC(=O)N2CCN3CCS(=O)(=O)N(C4CC4)C(=O)C3C2)c1 (stereo not drawn) | 747 |
| Cc1cccc(-c2nc(Cn3nnc(C(=O)NCc4ccc(F)c(Cl)c4)c3C)c(C)o2)c1 | 1180 |
| Cc1ccc(-c2cn3c(CC(=O)NCc4ccc5c(c4)OCO5)csc3n2)cc1C | 794 |
| Cc1nc(-c2ccccc2)sc1C(=O)N1CCC(C(C)C(=O)N2CCOCC2)CC1 (stereo not drawn) | 728 |
| Cc1ccc(CN2C(=O)CN(S(C)(=O)=O)CC2(C)C(=O)NC2CCCCCCC2)cc1 (stereo not drawn) | 930 |
| Cc1c(C(=O)N2CC(C)CC(C)C2)sc2ncn(CC(=O)N3CCC(C)CC3)c(=O)c12 (stereo not drawn) | 891 |

| SMILES | RP-LC retention time [s] |
| --- | --- |
| O=C(NCc1nc2ccccc2[nH]1)c1coc(NC(=O)c2cccs2)n1 | 556 |
| Fc1ccccc1-c1nc2ccc(Cl)cn2c1Nc1ccc(Cl)cc1 | 909 |
| Cc1ccc(NC(=O)N2CCC(n3cnc4ccc(C)cc4c3=O)CC2)cc1 | 801 |
| O=C(CCSc1ccc(F)cc1)Nc1nc2c(s1)CCC2 | 878 |
| O=C([C@@H]1C[C@H](F)CN1S(=O)(=O)c1ccccc1)N1CCCCC1 | 735 |
| COC(=O)c1cnc2nc(C)ccc2c1Nc1ccc(C)cc1Cl | 752 |
| CS(=O)(=O)Nc1ccc(C2(C(=O)NCc3cc(F)cc(F)c3)CCCCC2)cc1 | 916 |
| CCn1cnc(S(=O)(=O)N2CCCC(C(=O)Nc3ccccc3F)C2)c1 (stereo not drawn) | 735 |
| CN(C)[C@@H]1CN(C(=O)c2cc(Cl)ccc2F)C[C@H]1CO | 571 |
| O=C(c1nnn(-c2ccccc2Cl)c1-c1ccncc1)N1CCCC1 | 716 |
| COc1ccc(N2CCN(C(=O)CCC(=O)N3CCCn4nc(-c5cccn5C)cc43)CC2)cc1 | 711 |
| O=C(c1ccccc1Cl)N1CC2CC(C1)c1cccc(=O)n1C2 (stereo not drawn) | 596 |
| O=C(CN1C(=O)CC(c2ccccc2)S(=O)(=O)c2ccccc21)Nc1ccc(F)cc1F (stereo not drawn) | 906 |
| COc1ccccc1NC(=O)C1CCN(S(=O)(=O)c2c(C)[nH]c(C)c2C(=O)N2CCCC2)CC1 | 693 |
| CCN(CC)S(=O)(=O)N1CCC(C(=O)Nc2ccc3sc(NC(=O)C(C)C)nc3c2)CC1 | 854 |
| CCS(=O)(=O)N1CCCc2cc(C(=O)NC3CCCC3)ccc21 | 837 |
| Cc1ccc(NC(=O)N2CCC(N3CCN(Cc4ccccc4)C3=O)CC2)cc1C | 843 |
| CC(C)Cn1cc(CCNC(=O)Nc2cccc(Br)c2)c2cccnc21 | 904 |
| O=C(CCc1nnc(C(=O)Nc2ccccc2)s1)NCCc1c[nH]c2ccccc12 | 843 |
| Cc1cc(-c2csc(S(=O)(=O)NCCCN3CCN(C)CC3)c2)on1 | 580 |
| CCc1ccc2nc(C)cc(C(=O)NC(C)C)c2c1 | 621 |

The next lines start with the values.

| RP-LC retention time [s] | SMILES |
| --- | --- |
| 1180 | CCc1ccc(CNC(=O)c2cn(CC)nc2S(=O)(=O)N2CCC(C)CC2)cc1 |
| 1300 | CCOc1ccccc1NC(=O)c1cn(-c2cc(N3CCC(C)CC3)ncn2)cn1 |
| 858 | O=C(Cn1c(=O)c(S(=O)(=O)c2ccccc2)cc2ccccc21)NCc1ccccc1 |
| 672 | Cc1cc(=O)n(CC(=O)Nc2ccc(F)cc2F)c(N2CCCCC2)n1 |
| 1090 | Cn1nc(-c2nnc(-c3ccccc3F)o2)c2c1CCN(S(=O)(=O)c1ccc3c(c1)CCCC3)C2 |
| 880 | Cc1ccc(CNC(=O)Cn2cnc3c(sc4nc(-c5ccccc5)ccc43)c2=O)cc1 |
| 740 | COCC(=O)N(C1CCOCC1)C1CCN(S(=O)(=O)c2ccccc2F)CC1 |
| 586 | CC(C)NCC(O)COc1ccc(Br)cc1Br (stereo not drawn) |
| 620 | CC1CCN(CCNC(=O)c2nc(CCS(=O)(=O)c3ccc(F)cc3)no2)CC1 |
| 799 | COc1cc2c(cc1OC)CN(C(=O)CCc1sc(C)nc1-c1cccs1)CC2 |
| 767 | O=C(Cn1c(=O)c2cccn2c2ccc(F)cc21)NCc1ccco1 |
| 637 | O=C(c1ccccn1)N1CCCCC1c1nc(-c2cnccn2)no1 (stereo not drawn) |
| 668 | O=C(Cn1cnc2nc(N3CCCC(C(=O)NC4CC4)C3)sc2c1=O)Nc1ccccc1F (stereo not drawn) |
| 1100 | O=C(NC1CCCCCC1)c1nnc(-c2ccc(S(=O)(=O)N3CCCCC3)cc2)o1 |
| 769 | O=C(Nc1cccc(-c2nnc3n2CCCC3)c1)c1nccc2ccccc12 |
| 876 | O=C(Nc1ccc(F)c(Cl)c1)C1CCCN(S(=O)(=O)c2c[nH]c(C(=O)N3CCCC3)c2)C1 (stereo not drawn) |
| 1140 | O=c1c2cc(-c3ccccc3Cl)nn2cnn1Cc1nc(-c2ccc(F)cc2)no1 |
| 1250 | Cn1cc2c3c(cccc31)CN(C(=O)Nc1ccc(Cl)cc1F)CC2 |
| 1020 | CCn1cc(-c2nc(CC(=O)Nc3cc(F)ccc3F)cs2)c2cccnc21 |
| 1330 | Cc1ccc(-c2cc3c(=O)n(Cc4nc(-c5ccc(F)cc5)no4)ccn3n2)cc1 |
| 970 | CC(C)NC(=O)c1cn(-c2ccc(-c3nc(C(C)(C)C)no3)cn2)cn1 |
| 668 | COc1cccc(CNC(=O)C2(C)CCN(C(=O)NCC3CCCO3)CC2)c1 (stereo not drawn) |
| 577 | CC(C)N1CCN(C(=O)c2nc(N3CCSCC3)c3cnn(C)c3n2)CC1 |

| RP-LC retention time [s] | SMILES |
| --- | --- |
| 977 | Cc1ccc(-c2ccc(=O)n(Cc3noc(C(=O)N4CCC(C)CC4)n3)n2)cc1 |
| 958 | O=C(CN1c2ccc(F)cc2-c2ccccc2S1(=O)=O)N1CCCCCC1 |
| 687 | Cc1cc(F)ccc1NC(=O)C1(C)Oc2cccnc2NC1=O (stereo not drawn) |
| 688 | CCNC(=O)C1CCCN(c2nc3ncn(CC(=O)Nc4ccc(OCC)cc4)c(=O)c3s2)C1 (stereo not drawn) |
| 1020 | Cc1ccc2c(c1)N(S(C)(=O)=O)CCC(C(=O)Nc1cccc(Cl)c1C)O2 (stereo not drawn) |
| 581 | O=C(NCCN1CCN(C(=O)NCCCc2ccccc2)CC1)c1ccc2c(c1)OCO2 |
| 633 | CCCCN(C)CCNC(=O)C1c2ccccc2C(=O)N2CCc3cc(OC)c(OC)cc3C12 (stereo not drawn) |
| 770 | CCc1ccccc1NC(=O)N1CCC(OC2CCN(S(C)(=O)=O)CC2)CC1 |
| 734 | O=C(Cc1ccsc1)N1CCC(c2noc(C3CC3)n2)C1 (stereo not drawn) |
| 955 | COc1cccc(-c2ccc(=O)n(CCc3nc(-c4cc(OC)cc(OC)c4)no3)n2)c1 |
| 936 | O=C(CN1c2ccc(F)cc2-c2ccccc2S1(=O)=O)Nc1ccccc1 |
| 716 | O=C(COc1ccccc1F)NCCS(=O)(=O)N1CCN(c2ncccn2)CC1 |
| 649 | Cc1ccn2cc(-c3ccc(NS(=O)(=O)c4ccc(F)cc4)cc3)nc2n1 |
| 579 | Cc1cc(=O)oc2c(C)c(OCC(O)CN3CCC(C(N)=O)CC3)ccc12 (stereo not drawn) |
| 599 | COC(=O)Nc1ccc(S(=O)(=O)Nc2nc(C)cc(C)n2)cc1 |
| 690 | CS(=O)(=O)N1CCCC(C(=O)NCCC2=CCCCC2)CCNC(=O)CC1 (stereo not drawn) |
| 619 | CCOC(=O)c1noc2ncnc(NCCCN3CCN(c4cccc(C)c4)C(C)C3)c12 (stereo not drawn) |
| 733 | CCCN1CCn2cc(S(=O)(=O)Nc3ccccc3OC)cc2C1=O |
| 732 | C=CCn1c(C)c(CC(=O)NCCOC)c(=O)n2nc(-c3ccc(C)cc3)nc12 |
| 952 | O=C(C1CCOC1)N1CC(Oc2ccc(-c3nc(-c4ccccc4)no3)cc2)C1 (stereo not drawn) |
| 782 | Cc1ccc(Nc2c(-c3ccc(N(C)C)cc3)nc3ncccn23)c(C)c1 |
| 713 | C=CCNC(=O)N1CCCN(C2=NS(=O)(=O)C(c3ccccc3)=C2C)CC1 |
